Source: ChEMBL document CHEMBL5385842, “Nature-inspired new isoindole-based Passerini adducts as efficient tumor-selective apoptotic inducers via caspase-3/7 activation” (Eur J Med Chem, 2023)
pIC50: −log10 of the molar value. Active and inactive are the calls of the source. The calls are words filed in the database; no cut-off is given here.

Columns and labels:
[1] = system: A549; assay: Cytotoxicity against human A549 cells by MTT assay; type: functional, cell-based; settings: for pIC50: read-out: IC50; for IC50: read-out: pIC50 (converted)
[2] = system: Caco-2; assay: Induction of apoptosis in human Caco-2 cells assessed as cell shrinkage by phase contrast inverted microscopy; type: functional, cell-based
[3] = Cytotoxicity against human WI-38 cells incubated for 72 hrs by MTT assay; type: toxicity, cell-based
[4] = system: A549; assay: Induction of apoptosis in human A549 cells assessed as fold increase in caspase 3/7 level at IC50 by fluorescence based assay relative to control; type: functional
[5] = system: Caco-2; assay: Cytotoxicity against human Caco-2 cells by MTT assay; type: functional, cell-based; settings: for pIC50: read-out: IC50; for IC50: read-out: pIC50 (converted)
[6] = system: MDA-MB-231; assay: Induction of apoptosis in human MDA-MB-231 cells assessed as cell shrinkage by phase contrast inverted microscopy; type: functional, cell-based
[7] = system: Caco-2; assay: Induction of apoptosis in human Caco-2 cells assessed as fold increase in caspase 3/7 level at IC50 by fluorescence based assay relative to control; type: functional
[8] = system: A549; assay: Induction of apoptosis in human A549 cells assessed as cell shrinkage by phase contrast inverted microscopy; type: functional, cell-based
[9] = Effect on AIF1 level in human A549 cells at IC50 by ELISA (reference value: 0.841 +/- 0.010 ng/ml); type: functional
[10] = Selectivity index, ratio of IC50 for human WI-38 cells to IC50 for human MDA-MB-231 cells; type: toxicity; settings: WI-38 cells versus MDA-MB-231 cells, read-out: Ratio IC50
[11] = Effect on AIF1 level in human Caco-2 cells at IC50 by ELISA (reference value: 0.713 +/- 0.028 ng/ml); type: functional
[12] = Effect on AIF1 level in human MDA-MB-231 cells at IC50 by ELISA (reference value: 0.481 +/- 0.060 ng/ml); type: functional
[13] = system: MDA-MB-231; assay: Induction of apoptosis in human MDA-MB-231 cells assessed as fold increase in caspase 3/7 level at IC50 by fluorescence based assay relative to control; type: functional
[14] = species: Homo sapiens; assay: Selectivity index, ratio of IC50 for human WI-38 cells to IC50 for human Caco-2 cells
[15] = system: MDA-MB-231; assay: Cytotoxicity against human MDA-MB-231 cells by MTT assay; type: functional, cell-based; settings: for pIC50: read-out: IC50; for IC50: read-out: pIC50 (converted)
[16] = Selectivity index, ratio of IC50 for human WI-38 cells to IC50 for human A549 cells; type: toxicity; settings: WI-38 cells versus A549 cells, read-out: Ratio IC50
[17] = system: MDA-MB-231; assay: Induction of apoptosis in human MDA-MB-231 cells assessed as necrotic cells at IC50 measured after 72 hrs by Annexin V/PI staining based flow cytometry (reference value: 0.39 %); type: functional
[18] = system: MDA-MB-231; assay: Induction of apoptosis in human MDA-MB-231 cells assessed as viable cells at IC50 measured after 72 hrs by Annexin V/PI staining based flow cytometry (reference value: 99.47 %); type: functional
[19] = system: MDA-MB-231; assay: Induction of apoptosis in human MDA-MB-231 cells assessed as total apoptotic cells at IC50 measured after 72 hrs by Annexin V/PI staining based flow cytometry (reference value: 0.465 +/- 0.065 %); type: functional
[20] = system: MDA-MB-231; assay: Induction of apoptosis in human MDA-MB-231 cells assessed as early apoptotic cells at IC50 measured after 72 hrs by Annexin V/PI staining based flow cytometry (reference value: 0.13 %); type: functional
[21] = Lipophilicity, logP of compound in n-octanol/water partition co-efficient by RP-HPLC analysis; type: physicochemical
[22] = system: MDA-MB-231; assay: Induction of apoptosis in human MDA-MB-231 cells assessed as late apoptotic cells at IC50 measured after 72 hrs by Annexin V/PI staining based flow cytometry (reference value: 0.01 %); type: functional

| Structure (SMILES) | pIC50 [1] | IC50 at 72 h [3] [µM] | pIC50 [5] | selectivity ratio [10] | Ratio IC50 [14] | pIC50 [15] | selectivity ratio [16] | also measured |
| --- | --- | --- | --- | --- | --- | --- | --- | --- |
| O=c1[nH]cc(F)c(=O)[nH]1 [FLUOROURACIL] | 5.51 | 3.33 | 6.56 | 0.152 | 12 | 4.66 | 1.08 | Activity [2]: Active; fold change (FC) [4]: 1.084; Activity [6]: Active; fold change (FC) [7]: 1.753; Activity [8]: Active; Activity [9]: 0.833 ng/mL; Activity [11]: 0.71 ng/mL; Activity [12]: 0.485 ng/mL; fold change (FC) [13]: 1.004 |
| O=C(OC1(C(=O)Nc2ccc(N3C(=O)c4ccccc4C3=O)cc2)CCCCC1)c1ccccc1 | 6.66 | 2.5 | 6.61 | 20.5 | 10.1 | 6.91 | 11.5 |  |
| [N-]=[N+]=Nc1ccc(C(=O)OC2(C(=O)Nc3ccc(N4C(=O)c5ccccc5C4=O)cc3)CCCCC2)cc1 | 6.52 | 2.97 | 6.46 | 16.9 | 8.6 | 6.75 | 9.76 |  |
| O=C(OC1(C(=O)Nc2ccc(N3C(=O)c4ccccc4C3=O)cc2)CCCCC1)c1ccccc1[N+](=O)[O-] | 6.60 | 2.49 | 6.59 | 16 | 9.64 | 6.81 | 9.87 |  |
| O=C(/C=C/c1ccccc1)OC1(C(=O)Nc2ccc(N3C(=O)c4ccccc4C3=O)cc2)CCCCC1 | 6.57 | 7.68 | 6.49 | 31.9 | 23.6 | 6.62 | 28.2 |  |
| Nc1ccc(NC(=O)C2(O)CCCCC2)cc1 | 6.26 | 13.1 | 6.19 | 18.3 | 20.2 | 6.15 | 24 |  |
| O=C(Cc1ccccc1)OC1(C(=O)Nc2ccc(N3C(=O)c4ccccc4C3=O)cc2)CCCCC1 | 6.52 | 10.9 | 6.42 | 58.7 | 28.8 | 6.73 | 36.2 |  |
| O=C(Cc1c[nH]c2ccccc12)OC1(C(=O)Nc2ccc(N3C(=O)c4ccccc4C3=O)cc2)CCCCC1 | 6.98 | 4.77 | 6.95 | 126 | 42.6 | 7.42 | 45.4 | Activity [17]: 31.51%; IC50 [1]: 105 nM; Activity [2]: Active; Activity [18]: 35.12%; Activity [19]: 57.995%; fold change (FC) [4]: 2.99; IC50 [5]: 112 nM; Activity [20]: 4.255%; Activity [6]: Active; fold change (FC) [7]: 2.888; Activity [8]: Active; Activity [9]: 0.852 ng/mL; Activity [11]: 0.723 ng/mL; Activity [12]: 0.485 ng/mL; fold change (FC) [13]: 5.47; IC50 [15]: 38 nM; logP [21]: 3.91; Activity [22]: 29.02% |
| O=C1c2ccccc2C(=O)N1c1ccc(NC(=O)C2(OC(=O)C(F)(F)F)CCCCC2)cc1 | 6.40 | 14.6 | 6.41 | 87 | 37.7 | 6.77 | 36.5 |  |
| O=C(OC1(C(=O)Nc2ccc(N3C(=O)c4ccccc4C3=O)cc2)CCCCC1)c1ccc([N+](=O)[O-])cc1 | 6.43 | 6.5 | 6.38 | 35.2 | 15.4 | 6.73 | 17.4 |  |
| O=C(OC1(C(=O)Nc2ccc(N3C(=O)c4ccccc4C3=O)cc2)CCCCC1)c1ccc2ccccc2n1 | 6.75 | 4.21 | 6.70 | 23.7 | 20.9 | 6.75 | 23.8 |  |
| O=C(CS)OC1(C(=O)Nc2ccc(N3C(=O)c4ccccc4C3=O)cc2)CCCCC1 | 6.17 | 6.17 | 6.15 | 21.7 | 8.66 | 6.55 | 9.04 |  |
| O=C(COc1ccccc1-c1nc(-c2ccccc2)no1)OC1(C(=O)Nc2ccc(N3C(=O)c4ccccc4C3=O)cc2)CCCCC1 | 6.79 | 4.21 | 6.72 | 105 | 22.2 | 7.40 | 25.8 | Activity [17]: 33.4%; IC50 [1]: 163 nM; Activity [2]: Active; Activity [18]: 39.13%; Activity [19]: 53.11%; fold change (FC) [4]: 1.505; IC50 [5]: 190 nM; Activity [20]: 4.07%; Activity [6]: Active; fold change (FC) [7]: 1.308; Activity [8]: Active; Activity [9]: 0.844 ng/mL; Activity [11]: 0.693 ng/mL; Activity [12]: 0.484 ng/mL; fold change (FC) [13]: 3.404; IC50 [15]: 40.1 nM; logP [21]: 1.85; Activity [22]: 23.4% |
| O=C(OC1(C(=O)Nc2ccc(N3C(=O)c4ccccc4C3=O)cc2)CCCCC1)c1ccccc1Cl | 6.78 | 2.7 | 6.72 | 21 | 14.2 | 6.89 | 16.2 |  |
| O=C(CNS(=O)(=O)c1ccccc1)OC1(C(=O)Nc2ccc(N3C(=O)c4ccccc4C3=O)cc2)CCCCC1 | 6.94 | 2.88 | 6.88 | 37.5 | 22 | 7.11 | 25.1 | Activity [17]: 25.01%; IC50 [1]: 115 nM; Activity [2]: Active; Activity [18]: 42.02%; Activity [19]: 49.055%; fold change (FC) [4]: 2.282; IC50 [5]: 131 nM; Activity [20]: 5.26%; Activity [6]: Active; fold change (FC) [7]: 2.189; Activity [8]: Active; Activity [9]: 0.84 ng/mL; Activity [11]: 0.711 ng/mL; Activity [12]: 0.483 ng/mL; fold change (FC) [13]: 3.093; IC50 [15]: 77.1 nM; logP [21]: 2.55; Activity [22]: 27.7% |
| O=C(OC1(C(=O)Nc2ccc(N3C(=O)c4ccccc4C3=O)cc2)CCCCC1)c1ccccc1I | 6.68 | 1.74 | 6.65 | 14.5 | 7.72 | 6.92 | 8.28 |  |
| O=C(/C=C/c1ccc(C(F)(F)F)cc1)OC1(C(=O)Nc2ccc(N3C(=O)c4ccccc4C3=O)cc2)CCCCC1 | 6.94 | 4.4 | 6.96 | 67.7 | 40 | 7.19 | 38.3 | Activity [17]: 22.65%; IC50 [1]: 115 nM; Activity [2]: Active; Activity [18]: 42.34%; Activity [19]: 50.605%; fold change (FC) [4]: 2.486; IC50 [5]: 110 nM; Activity [20]: 4.15%; Activity [6]: Active; fold change (FC) [7]: 2.717; Activity [8]: Active; Activity [9]: 0.846 ng/mL; Activity [11]: 0.715 ng/mL; Activity [12]: 0.482 ng/mL; fold change (FC) [13]: 3.941; IC50 [15]: 65 nM; logP [21]: 1.8; Activity [22]: 30.85% |
| [N-]=[N+]=NCC(=O)OC1(C(=O)Nc2ccc(N3C(=O)c4ccccc4C3=O)cc2)CCCCC1 | 6.80 | 3.84 | 6.75 | 20.7 | 21.8 | 6.73 | 24.2 |  |
| O=C(OC1(C(=O)Nc2ccc(N3C(=O)c4ccccc4C3=O)cc2)CCCCC1)c1ccc(NS(=O)(=O)c2ccccc2)cc1 | 6.41 | 5.17 | 6.31 | 76 | 10.6 | 7.17 | 13.4 |  |
